What was measured:
Format in all cases: in vivo
[1] = test system: Bemisia tabaci (Cotton White Fly); assay: Example B1: Bemisia tabaci, sprayed cotton leaf discs, mortality; conditions: foliar, 144 h, application rate of 200 ppm, adult white flies, 6 days after incubation
Procedure: Cotton leaf discs were placed on agar in 24-well microtiter plates and sprayed with aqueous test solutions prepared from 10,000 ppm DMSO stock solutions. After drying the leaf discs were infested with adult white flies. The samples were checked for mortality 6 days after incubation.

[2] = test system: Diabrotica balteata (Corn Root Worm); assay: Example B2: Diabrotica balteata, sprayed maize sprouts, mortality and growth inhibition; conditions: 96 h, application rate of 200 ppm, L2 larvae, 4 days after infestation, read-out: effect in at least one of the two categories (mortality or growth inhibition)
Procedure: (§1) Maize sprouts placed onto an agar layer in 24-well microtiter plates were treated with aqueous test solutions prepared from 10,000 ppm DMSO stock solutions by spraying. After drying, the plates were infested with L2 larvae (6 to 10 per well). The samples were assessed for mortality and growth inhibition in comparison to untreated samples 4 days after infestation.

[3] = test system: Diabrotica balteata (Corn Root Worm); assay: Example B3: Diabrotica balteata, sprayed maize sprouts, mortality; conditions: 96 h, application rate of 200 ppm, L2 larvae, 4 days after infestation
Procedure: as §1, with “mortality” for “mortality and growth inhibition in comparison to untreated samples”

[4] = test system: Frankliniella occidentalis (Western Flower Thrips); assay: Example B7: Frankliniella occidentalis, sprayed sunflower leaf discs, mortality; conditions: foliar, 168 h, application rate of 200 ppm, population of mixed ages, 7 days after infestation
Procedure: Sunflower leaf discs were placed on agar in 24-well microtiter plates and sprayed with aqueous test solutions prepared from 10,000 DMSO stock solutions. After drying the leaf discs were infested with a Frankliniella population of mixed ages. The samples were assessed for mortality 7 days after infestation.

[5] = test system: Plutella xylostella (Diamond Back Moth); assay: Example B12: Plutella xylostella, treated artificial diet, mortality; conditions: 120 h, application rate of 200 ppm, L2 larvae, 5 days after infestation
Procedure: (§2) 24-well microtiter plates with artificial diet were treated with aqueous test solutions prepared from 10,000 ppm DMSO stock solutions by pipetting. After drying, the plates were infested with L2 larvae (10 to 15 per well). The samples were assessed for mortality 5 days after infestation.

[6] = test system: Plutella xylostella (Diamond Back Moth); assay: Example B13: Plutella xylostella, treated artificial diet, mortality and growth inhibition; conditions: 120 h, application rate of 200 ppm, L2 larvae, 5 days after infestation, read-out: effect in at least one of the two categories (mortality or growth inhibition)
Procedure: as §2, with “mortality and growth inhibition in comparison to untreated samples” for “mortality”

[7] = test system: Spodoptera littoralis (Egyptian Cotton Leaf Worm); assay: Example B14: Spodoptera littoralis, sprayed cotton leaf discs, anti-feeding effect; conditions: foliar, 72 h, application rate of 200 ppm, L1 larvae, 3 days after infestation
Procedure: (§3) Cotton leaf discs were placed onto agar in 24-well microtiter plates and sprayed with aqueous test solutions prepared from 10,000 ppm DMSO stock solutions. After drying the leaf discs were infested with five L1 larvae. The samples were assessed for anti-feeding effect in comparison to untreated samples 3 days after infestation. Control of Spodoptera littoralis by a test sample is given when the anti-feedant effect is higher than the untreated sample.

[8] = test system: Spodoptera littoralis (Egyptian Cotton Leaf Worm); assay: Example B15: Spodoptera littoralis, sprayed cotton leaf discs, growth inhibition; conditions: foliar, 72 h, application rate of 200 ppm, L1 larvae, 3 days after infestation, read-out: control (growth inhibition)
Procedure: as §3, with “growth inhibition” for “anti-feeding effect”, “growth inhibition” for “anti-feedant effect”

[9] = test system: Spodoptera littoralis (Egyptian Cotton Leaf Worm); assay: Example B16: Spodoptera littoralis, sprayed cotton leaf discs, mortality; conditions: foliar, 72 h, application rate of 200 ppm, L1 larvae, 3 days after infestation
Procedure: Cotton leaf discs were placed onto agar in 24-well microtiter plates and sprayed with aqueous test solutions prepared from 10,000 ppm DMSO stock solutions. After drying the leaf discs were infested with five L1 larvae. The samples were assessed for mortality 3 days after infestation.

[10] = test system: Spodoptera littoralis (Egyptian Cotton Leaf Worm); assay: Example B17: Spodoptera littoralis, sprayed cotton leaf discs, mortality, anti-feeding effect and growth inhibition; conditions: foliar, 72 h, application rate of 200 ppm, L1 larvae, 3 days after infestation, read-out: control (at least one of mortality, anti-feedant effect, growth inhibition)
Procedure: Cotton leaf discs were placed onto agar in 24-well microtiter plates and sprayed with aqueous test solutions prepared from 10,000 ppm DMSO stock solutions. After drying the leaf discs were infested with five L1 larvae. The samples were assessed for mortality, anti-feeding effect, and growth inhibition in comparison to untreated samples 3 days after infestation. Control of Spodoptera littoralis by a test sample is given when at least one of the categories mortality, anti-feedant effect, and growth inhibition is higher than the untreated sample.

[11] = test system: Euschistus heros (Neotropical Brown Stink Bug); assay: Example B5: Euschistus heros, sprayed soybean leaves, mortality; conditions: 120 h, application rate of 200 ppm, N2 nymphs, 5 days after infestation
Procedure: (§4) Soybean leaves on agar in 24-well microtiter plates were sprayed with aqueous test solutions prepared from 10,000 ppm DMSO stock solutions. After drying the leaves were infested with N2 nymphs. The samples were assessed for mortality 5 days after infestation.

[12] = test system: Euschistus heros (Neotropical Brown Stink Bug); assay: Example B6: Euschistus heros, sprayed soybean leaves, mortality and growth inhibition; conditions: 120 h, application rate of 200 ppm, N2 nymphs, 5 days after infestation, read-out: effect in at least one of the two categories (mortality or growth inhibition)
Procedure: as §4, with “mortality and growth inhibition in comparison to untreated samples” for “mortality”

[13] = test system: Spodoptera littoralis (Egyptian Cotton Leaf Worm); assay: Example B18: Spodoptera littoralis, compound in agar absorbed by lettuce roots, mortality, anti-feedant effect and growth inhibition; conditions: 144 h, test rate of 12.5 ppm, uptake by lettuce roots, Spodoptera eggs, 6 days after infestation, read-out: effect in at least one of the three categories (mortality, anti-feeding, or growth inhibition)
From the text: Test compounds were applied by pipette from 10,000 ppm DMSO stock solutions into 24-well plates and mixed with agar. Lettuce seeds were placed onto the agar and the multi well plate was closed by another plate which contained also agar. After 7 days the compound was absorbed by the roots and the lettuce grew into the lid plate. The lettuce leaves were then cut off into the lid plate. Spodoptera eggs were pipetted through a plastic stencil onto a humid gel blotting paper and the lid plate was closed with it. The samples were assessed for mortality, anti-feedant effect and growth inhibition in comparison to untreated samples 6 days after infestation.

[14] = test system: Spodoptera littoralis (Egyptian Cotton Leaf Worm); assay: Example B19: Spodoptera littoralis, compound in agar absorbed by lettuce roots, anti-feedant effect; conditions: 144 h, test rate of 12.5 ppm, uptake by lettuce roots, Spodoptera eggs, 6 days after infestation, read-out: anti-feeding
From the text: Test compounds were applied by pipette prepared from 10,000 ppm DMSO stock solutions into 24-well plates and mixed with agar. Lettuce seeds were placed onto the agar and the multi well plate was closed by another plate which contained also agar. After 7 days the compound was absorbed by the roots and the lettuce grew into the lid plate. The lettuce leaves were then cut off into the lid plate. Spodoptera eggs were pipetted through a plastic stencil onto a humid gel blotting paper and the lid plate was closed with it. The samples were assessed for anti-feedant effect in comparison to untreated samples 6 days after infestation.

[15] = test system: Spodoptera littoralis (Egyptian Cotton Leaf Worm); assay: Example B20: Spodoptera littoralis, compound in agar absorbed by lettuce roots, mortality; conditions: 144 h, test rate of 12.5 ppm, uptake by lettuce roots, Spodoptera eggs, 6 days after infestation
From the text: Test compounds were applied by pipette prepared from 10,000 ppm DMSO stock solutions into 24-well plates and mixed with agar. Lettuce seeds were placed onto the agar and the multi well plate was closed by another plate which contained also agar. After 7 days the compound was absorbed by the roots and the lettuce grew into the lid plate. The lettuce leaves were then cut off into the lid plate.
Spodoptera eggs were pipetted through a plastic stencil onto a humid gel blotting paper and the lid plate was closed with it. The samples were assessed for mortality 6 days after infestation.

[16] = test system: Aedes aegypti (Yellow Fever Mosquito); assay: Example B23: Aedes aegypti, dry deposits in 12 well tissue culture plates, control; conditions: application rate of 200 ppm in ethanol, adult females, after 48 h and/or 24 h
Procedure: Test solutions, at an application rate of 200 ppm in ethanol, were applied to 12 well tissue culture plates. Once the deposits were dry, five, two to five day old adult female Aedes aegypti were added to each well, and sustained with a 10% sucrose solution in a cotton wool plug. Assessment of knockdown was made one hour after introduction, and mortality was assessed at 24 and 48 hours after introduction.

[17] = test system: Plutella xylostella (Diamond Back Moth); assay: Example B10: Plutella xylostella, treated artificial diet, growth inhibition; conditions: 120 h, application rate of 200 ppm, L2 larvae, 5 days after infestation
Procedure: as §2, with “growth inhibition in comparison to untreated samples” for “mortality”, “infestation. Control of Plutella xylostella by a test sample is given when the growth inhibition is higher than the untreated sample.” for “infestation.”

[18] = test system: Myzus persicae (Green Peach Aphid); assay: Example B8: Myzus persicae, sprayed sunflower leaf discs, mortality; conditions: foliar, 144 h, application rate of 200 ppm, leaf disc spray, aphid population of mixed ages, 6 days after infestation
Procedure: Sunflower leaf discs were placed onto agar in a 24-well microtiter plate and sprayed with aqueous test solutions prepared from 10,000 ppm DMSO stock solutions. After drying, the leaf discs were infested with an aphid population of mixed ages. The samples were assessed for mortality 6 days after infestation.

CCS(=O)(=O)c1cc(-c2ccc(C#N)cc2)cnc1-c1cn2cnc(C(F)(F)F)cc2n1 [Compound P10]
≥ 80%: mortality at 200 ppm [1] | percent effect (mortality or growth inhibition) at 200 ppm [2] | mortality at 200 ppm [3] | mortality at 200 ppm [4] | mortality at 200 ppm [5] | percent effect (mortality or growth inhibition) at 200 ppm [6] | pest or weed control at 200 ppm [7] | inhibition at 200 ppm [8] | mortality at 200 ppm [9] | percent control (mortality, anti-feedant effect or growth inhibition) at 200 ppm [10]

CCS(=O)(=O)c1cc(-n2ccc(C(F)(F)F)n2)cnc1-c1cn2cnc(C(F)(F)F)cc2n1 [Compound P4, 2-[3-ethylsulfonyl-5-[3-(trifluoromethyl)pyrazol-1-yl]-2-pyridyl]-7-(trifluoromethyl)imidazo[1,2-c]pyrimidine]
≥ 80%: mortality at 200 ppm [1] | percent effect (mortality or growth inhibition) at 200 ppm [2] | mortality at 200 ppm [3] | mortality at 200 ppm [11] | percent effect (mortality or growth inhibition) at 200 ppm [12] | mortality at 200 ppm [5] | percent effect (mortality or growth inhibition) at 200 ppm [6] | pest or weed control at 200 ppm [7] | mortality at 200 ppm [9] | percent control (mortality, anti-feedant effect or growth inhibition) at 200 ppm [10] | percent effect (mortality, anti-feeding or growth inhibition) at 12.5 ppm [13] | pest or weed control at 12.5 ppm [14] | mortality at 12.5 ppm [15] | pest or weed control at 200 ppm [16]

CCS(=O)(=O)c1cc(-c2cccc(SC)c2)cnc1-c1cn2cnc(C(F)(F)F)cc2n1 [Compound P9]
≥ 80%: percent effect (mortality or growth inhibition) at 200 ppm [2] | mortality at 200 ppm [3] | mortality at 200 ppm [11] | percent effect (mortality or growth inhibition) at 200 ppm [12] | inhibition at 200 ppm [17] | mortality at 200 ppm [5] | percent effect (mortality or growth inhibition) at 200 ppm [6] | pest or weed control at 200 ppm [7] | inhibition at 200 ppm [8] | mortality at 200 ppm [9] | percent control (mortality, anti-feedant effect or growth inhibition) at 200 ppm [10] | pest or weed control at 200 ppm [16]

CCS(=O)(=O)c1cc(-c2ccc(Cl)cc2)cnc1-c1cn2cnc(C(F)(F)C(F)(F)F)cc2n1 [Compound P15]
≥ 80%: mortality at 200 ppm [1] | percent effect (mortality or growth inhibition) at 200 ppm [2] | mortality at 200 ppm [11] | percent effect (mortality or growth inhibition) at 200 ppm [12] | mortality at 200 ppm [4] | mortality at 200 ppm [5] | percent effect (mortality or growth inhibition) at 200 ppm [6] | pest or weed control at 200 ppm [7] | mortality at 200 ppm [9] | percent control (mortality, anti-feedant effect or growth inhibition) at 200 ppm [10] | percent effect (mortality, anti-feeding or growth inhibition) at 12.5 ppm [13] | pest or weed control at 12.5 ppm [14] | mortality at 12.5 ppm [15]

CCS(=O)(=O)c1cc(C2CC2)cnc1-c1cn2cnc(C(F)(F)F)cc2n1 [Compound P16, 2-(5-cyclopropyl-3-ethylsulfonyl-2-pyridyl)-7-(trifluoromethyl)imidazo [1,2-c]pyrimidine]
≥ 80%: percent effect (mortality or growth inhibition) at 200 ppm [2] | mortality at 200 ppm [3] | mortality at 200 ppm [11] | percent effect (mortality or growth inhibition) at 200 ppm [12] | mortality at 200 ppm [4] | mortality at 200 ppm [18] | inhibition at 200 ppm [17] | mortality at 200 ppm [5] | percent effect (mortality or growth inhibition) at 200 ppm [6] | pest or weed control at 200 ppm [7] | inhibition at 200 ppm [8] | mortality at 200 ppm [9] | percent control (mortality, anti-feedant effect or growth inhibition) at 200 ppm [10] | pest or weed control at 200 ppm [16]

From patent US10645928B2, “Pesticidally active polycyclic derivatives with sulfur containing substituents” (Syngenta Participations AG, priority 2014, dated 2020)
